The nature of data set [1]: Average particle size and polydispersity index of lipid nanoparticles (dynamic light scattering). The class given is physicochemical. As to the method:
(§1) The average particle size (number average value), ζ-average particle size, and polydispersity index (PdI) of the lipid nanoparticles in PBS(-) (pH 7.4), and the zeta potential in 10 mM HEPES buffer (pH 7.4) were measured using an analyzer "Zetasizer Nano ZS ZEN3600" (manufactured by Malvern) utilizing dynamic light scattering.

Data set [2] is described as follows: Zeta potential of lipid nanoparticles. The class given is physicochemical. As to the method:
as §1

Data set [3] in a line: Encapsulation rate of lipid nanoparticles (Ribogreen). It counts as physicochemical. As to the method: The encapsulation rate of the lipid nanoparticles was determined by measuring the amount of encapsulated nucleic acid (mRNA) using Ribogreen (manufactured by Life Technologies), which is an RNA intercalator. The mRNA amount was quantified based on a calibration curve prepared from a series of diluted mRNA solutions at known concentrations.
Specifically, 10 mM HEPES buffer (pH 7.4), 10 w/v% Triton X-100, and Ribogreen were mixed at 978.8 µL, 20 µL, and 1.25 µL per 10 wells, respectively, to obtain a Triton(+) buffer. A Triton(-) buffer was obtained in replacing Triton X-100 with 10 mM HEPES buffer (pH 7.4). 100 µL/well of the sample was added to a black 96-well plate for fluorescence measurement, and 100 µL/well of Triton(+) buffer or Triton(-) buffer was added. After the plate was gently shaken on a shaking incubator (SI-300, manufactured by AS ONE) (700 rpm, 30 seconds), the fluorescence intensity of each well was measured using a microplate reader (VARIOSKAN LUX, manufactured by Thermo Fisher Scientific) (wavelength Ex/Em=500 nm/525 nm), and the nucleic acid encapsulation rate (%) was calculated.

Another data set relates to liver. The experiment in a line: EGFP expression in liver tissue sections of mice administered EGFP mRNA-loaded lipid nanoparticles (confocal microscopy). It counts as in vivo, Balb/c mice. The conditions noted are these: Example 27, Fig. 6; EGFP mRNA-loaded lipid nanoparticles TxT/DSPC/chol/PEG-DMG=50/3/47/1.5 (mol%); 24 hours post-administration. As to the method: Subsequently, each EGFP mRNA-loaded lipid nanoparticle was administered to Balb/c mice at a dose of 0.2 mg mRNA/kg. At 23 hours and 50 minutes post-administration, fluorescently labeled lectin (DyLight-649 Lycopersicon (Tomato) Lectin) was intravenously injected via the tail vein at 40 µg/mouse to fluorescently label vascular endothelial cells. At 24 hours after administration of the lipid nanoparticles, the mice were euthanized, and their livers were collected to prepare tissue sections. For nuclear staining, the tissue sections were immersed in a nuclear staining solution (1 µg/mL Hoechst 33342 dissolved in PBS(-)), cooled on ice, and incubated for at least 30 minutes in the dark. The stained tissue sections were then observed using a confocal laser scanning microscope. Subsequently, in the same manner as Example 26, each EGFP mRNA-loaded lipid nanoparticle was administered to Balb/c mice. At 23 hours and 50 minutes post-administration, fluorescently labeled lectin was administered. At 24 hours after administration of the lipid nanoparticles, the mice were euthanized, and their livers were collected to prepare tissue sections. Each tissue section was observed using a confocal laser scanning microscope. In the figure, the upper panels show fluorescence images of EGFP, and the lower panels show fluorescence images of vascular endothelial cells (fluorescently labeled lectin).

The conditions of data set [4]: lipid nanoparticles, tns.
Procedure: The apparent pKa of the lipid nanoparticles was measured using p-toluenesulfonic acid (TNS). First, TNS (final concentration: 0.75 µM) and lipid nanoparticles (final concentration: 30 µM) were mixed in a buffer (200 mL) adjusted to each pH (pH 3.5 to 9.5). As the buffer, 20 mM citrate buffer, 20 mM sodium phosphate buffer, or 20 mM Tris-HCl buffer containing 130 mM NaCl was used. The fluorescence intensity of the prepared mixture was measured using a fluorescence spectrophotometer (Varioskan Lux, manufactured by Thermo Fisher Scientific) with the settings of λex=321 nm and λem=447 nm. Among the measured values, the highest value and the lowest value were set as 100% and 0% ionization degrees, respectively, and the pH showing a 50% ionization degree was calculated as the apparent pKa. The content ratio (%) of cationically charged pH-sensitive cationic lipid was calculated using the Henderson-Hasselbalch equation.
The mark [5] stands for this setting: Table 3, Fluc mRNA-loaded lipid nanoparticles, TxT/DSPC/chol/PEG-DMG=50/3/47/1.5 (mol%).
The mark [6] stands for this setting: Table 5, EGFP mRNA-loaded lipid nanoparticles, TxT/DSPC/chol/PEG-DMG=50/3/47/1.5 (mol%), total flow rate 3.0 mL/min.
[7] abbreviates: Table 8 (Example 32), lipid nanoparticles for TTR-targeted genome editing, Cas9-mRNA and TTR-gRNA 1:2 (N/P = 6.0), TxT/DSPC/chol/PEG-DMG = 50/3/47/1.5 (mol%).

What is called pKa is the negative logarithm of the acid dissociation constant. In the case of `CCCCC(CC)CN(CC(CC)CCCC)C(=O)CCCC(=O)OCC(COC(=O)CCCC(=O)N(CC(CC)CCCC)CC(CC)CCCC)(COC(=O)CCCC(=O)N(CC(CC)CCCC)CC(CC)CCCC)NC(=O)CCN1CCCCC1` (centres unmarked) [TxT-5-5A16b], in data set [1] (setting [5]), the Pdl is listed as 0.22, the “number average particle size” value worked out at 61.6 nm and the ζ-average particle size amounted to 103.7 nm. Also, in data set [1] (setting [6]), the Pdl is reported as 0.07, the “number average particle size” value worked out at 59.1 nm and the ζ-average particle size is reported as 81.4 nm. For the same compound, in data set [2] (setting [5]), the ζ-potential is on record as -11.2 mV. The ζ-potential in data set [2] (setting [6]) is listed as -6.0 mV. In data set [3] (setting [5]), the mRNA concentration is reported as 0.019 µg/µL and the mRNA encapsulation rate came to 96.0%. In data set [3] (setting [6]), this compound gave a mRNA concentration of 0.020 µg/µL and a mRNA encapsulation rate of 97.9%. Besides, in the data set with liver, the “fluorescence of EGFP in the liver tissues” value (from here on “fluorescence of EGFP”) is “fluorescence of EGFP was observed”. In data set [4], this compound registered a pKa of 4.99.

With “2-(6-(didecylamino)-2,6-dioxohexyl)-2-(3-(piperidin-1-yl)propanamido)propane-1,3-diyl bis(5-(didecylamino)-5-oxopentanoate) [TxT-5-5A20]”, in data set [1] (setting [5]), the Pdl is reported as 0.11, the “number average particle size” value worked out at 95.1 nm and the ζ-average particle size is on record as 136.2 nm. Also, in data set [1] (setting [6]), the Pdl amounted to 0.08, the “number average particle size” value is 108.4 nm and the ζ-average particle size amounted to 136.2 nm. The ζ-potential in data set [2] (setting [5]) was -4.4 mV. Further, the ζ-potential in data set [2] (setting [6]) is on record as -8.7 mV. In data set [3] (setting [5]), this compound returned a mRNA concentration of 0.018 µg/µL and a mRNA encapsulation rate of 98.2%. Besides, in data set [3] (setting [6]), the mRNA concentration was determined as 0.022 µg/µL and the mRNA encapsulation rate is reported as 97.8%. For the same compound, the “fluorescence of EGFP” value in the data set on liver is “fluorescence of EGFP was observed”. Moreover, the pKa in data set [4] came to 6.53.

Consider “2-(6-(didodecylamino)-2,6-dioxohexyl)-2-(3-(piperidin-1-yl)propanamido)propane-1,3-diyl bis(5-(didodecylamino)-5-oxopentanoate) [TxT-5-5A24]”, for which, in data set [1] (Example 32, Table 8, lipid nanoparticles for TTR-targeted genome editing), the “average particle diameter, comparison among TxT lipids” value was “smallest average particle diameter”. In addition, the Pdl in data set [1] (setting [5]) amounted to 0.14; in data set [1] (setting [6]), 0.10; in data set [1] (setting [7]), 0.12. Moreover, the “number average particle size” value is reported as 92.2 nm in data set [1] (setting [5]), 85.3 nm in data set [1] (setting [6]) and 53.1 nm in data set [1] (setting [7]). For the same compound, the ζ-average particle size in data set [1] (setting [5]) worked out at 133.1 nm; in data set [1] (setting [6]), 129.5 nm; in data set [1] (setting [7]), 73.8 nm. The ζ-potential is given as -8.9 mV in data set [2] (setting [5]), -4.2 mV in data set [2] (setting [6]) and -6.5 mV in data set [2] (setting [7]). Further, the mRNA concentration in data set [3] (setting [5]) is 0.022 µg/µL; in data set [3] (setting [6]), 0.021 µg/µL; in data set [3] (setting [7]), 0.541 µg/µL. The mRNA encapsulation rate in data set [3] (setting [5]) is 96.5%; in data set [3] (setting [6]) it was 97.3%; in data set [3] (setting [7]), 98.4%. Besides, the “fluorescence of EGFP” value in the data set with liver was “fluorescence of EGFP was observed”. Also, the “gene expression in hepatocytes” value in the data set on liver was “notably high levels of gene expression”. The same compound yielded a pKa in data set [4] of 6.68.

The values are drawn from patent EP4722195A1, “PH-SENSITIVE CATIONIC LIPID AND LIPID NANOPARTICLES” (National University Corporation Hokkaido University, priority 2023, dated 2024).
